Our source for the IC50 values is US20120172384A1, “HETEROCYCLYLAMINOPYRIMIDINES AS KINASE INHIBITORS” (priority 2009, published 2012).

pIC50: −log10 of the molar value.

The target in one assay is T1, ZAP-70 (Homo sapiens, UniProt P43403).
T1 construct: endogenous in cells
T1 sequence (P43403 1-619): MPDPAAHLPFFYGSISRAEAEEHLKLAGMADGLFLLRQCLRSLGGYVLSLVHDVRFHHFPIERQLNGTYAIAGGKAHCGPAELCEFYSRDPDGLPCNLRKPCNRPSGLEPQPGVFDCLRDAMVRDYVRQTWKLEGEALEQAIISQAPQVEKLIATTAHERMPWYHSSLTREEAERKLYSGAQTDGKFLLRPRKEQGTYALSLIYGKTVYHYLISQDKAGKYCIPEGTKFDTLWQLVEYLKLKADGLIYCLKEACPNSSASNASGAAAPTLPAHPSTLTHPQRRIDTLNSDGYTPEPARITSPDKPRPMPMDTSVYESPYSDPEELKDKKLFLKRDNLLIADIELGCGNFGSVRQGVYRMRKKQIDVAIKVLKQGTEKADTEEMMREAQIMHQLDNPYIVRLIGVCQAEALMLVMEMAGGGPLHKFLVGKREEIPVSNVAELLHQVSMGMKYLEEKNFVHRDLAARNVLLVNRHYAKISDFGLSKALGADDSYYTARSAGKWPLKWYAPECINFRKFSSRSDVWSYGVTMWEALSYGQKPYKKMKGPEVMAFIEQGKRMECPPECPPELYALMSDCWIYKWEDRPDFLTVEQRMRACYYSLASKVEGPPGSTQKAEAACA
The experiment in a line: ZAP-70 kinobeads assay. The format is binding. The conditions noted are these: cell lysate, dot blot with ZAP-70 antibody. As for the experimental part: (§1) The compounds of the present invention as described in the previous examples were tested in the ZAP-70 kinobeads assay as described (EP-A 1862802 and WO-A 2007/137867). Briefly, test compounds (at various concentrations) and the affinity matrix with the immobilized aminopyrido-pyrimidine ligand 24 are added to cell lysate aliquots and allowed to bind to the proteins in the lysate sample. After the incubation time the beads with captured proteins are separated from the lysate. Bound proteins are then eluted and the presence ZAP-70 is detected and quantified using a specific antibody in a dot blot procedure and the Odyssey infrared detection system.
By pIC50 is commonly meant the negative decadic logarithm of the IC50, by convention in mol/L. Lower therefore signals a large IC50. On to `COc1ccc(Nc2nc(Nc3cc(C)nn3CC(C)C)ncc2Cl)c(NS(C)(=O)=O)c1` [Example 95, N-(2-((5-chloro-2-((1-isobutyl-3-methyl-1H-pyrazol-5-yl)amino)pyrimidin-4-yl)amino)-5-methoxyphenyl)methanesulfonamide], for which the pIC50 was 6.00 to 7.00.

Take `COc1ccc(Nc2nc(Nc3ccnn3C(C)C)ncc2Cl)c(NS(C)(=O)=O)c1` [Example 68, N-(2-((5-chloro-2-((1-isopropyl-1H-pyrazol-5-yl)amino)pyrimidin-4-yl)amino)-5-methoxyphenyl)methanesulfonamide]: the pIC50 was 6.00 to 7.00.

`CCCCn1nccc1Nc1ncc(Cl)c(Nc2ccc(OC)cc2NS(C)(=O)=O)n1` [Example 87, N-(2-((2-((1-butyl-1H-pyrazol-5-yl)amino)-5-chloropyrimidin-4-yl)amino)-5-methoxyphenyl)methanesulfonamide] showed a negative logarithm of the IC50 (pIC50) of 6.00 to 7.00.

Consider `CCCn1nccc1Nc1ncc(Cl)c(Nc2ccc(OC)cc2NS(C)(=O)=O)n1` [Example 76, N-(2-((5-chloro-2-((1-propyl-1H-pyrazol-5-yl)amino)pyrimidin-4-yl)amino)-5-methoxyphenyl)methanesulfonamide], for which the pIC50 is 6.00 to 7.00.

`COc1ccc(Nc2nc(Nc3cc(C)nn3C(C)C)ncc2Cl)c(NS(C)(=O)=O)c1` [Example 71, N-(2-((5-chloro-2-((1-isopropyl-3-methyl-1H-pyrazol-5-yl)amino)pyrimidin-4-yl)amino)-5-methoxyphenyl)methanesulfonamide]: the pIC50 was 6.00 to 7.00.

Turning to `COc1ccc(Nc2nc(Nc3ccnn3CC(C)C)ncc2Cl)c(NS(C)(=O)=O)c1` [Example 98, N-(2-((5-chloro-2-((1-isobutyl-1H-pyrazol-5-yl)amino)pyrimidin-4-yl)amino)-5-methoxyphenyl)methanesulfonamide], the pIC50 was 5.00 to 6.00.

`CCCn1nc(C)cc1Nc1ncc(Cl)c(Nc2ccc(OC)cc2NS(C)(=O)=O)n1` [Example 69, N-(2-((5-chloro-2-((3-methyl-1-propyl-1H-pyrazol-5-yl)amino)pyrimidin-4-yl)amino)-5-methoxyphenyl)methanesulfonamide] gave a pIC50 not below 7.00.

The target of another assay is T2, JAK3 (Homo sapiens, UniProt P52333).
T2 construct: endogenous in cells
T2 sequence (P52333 1-1124): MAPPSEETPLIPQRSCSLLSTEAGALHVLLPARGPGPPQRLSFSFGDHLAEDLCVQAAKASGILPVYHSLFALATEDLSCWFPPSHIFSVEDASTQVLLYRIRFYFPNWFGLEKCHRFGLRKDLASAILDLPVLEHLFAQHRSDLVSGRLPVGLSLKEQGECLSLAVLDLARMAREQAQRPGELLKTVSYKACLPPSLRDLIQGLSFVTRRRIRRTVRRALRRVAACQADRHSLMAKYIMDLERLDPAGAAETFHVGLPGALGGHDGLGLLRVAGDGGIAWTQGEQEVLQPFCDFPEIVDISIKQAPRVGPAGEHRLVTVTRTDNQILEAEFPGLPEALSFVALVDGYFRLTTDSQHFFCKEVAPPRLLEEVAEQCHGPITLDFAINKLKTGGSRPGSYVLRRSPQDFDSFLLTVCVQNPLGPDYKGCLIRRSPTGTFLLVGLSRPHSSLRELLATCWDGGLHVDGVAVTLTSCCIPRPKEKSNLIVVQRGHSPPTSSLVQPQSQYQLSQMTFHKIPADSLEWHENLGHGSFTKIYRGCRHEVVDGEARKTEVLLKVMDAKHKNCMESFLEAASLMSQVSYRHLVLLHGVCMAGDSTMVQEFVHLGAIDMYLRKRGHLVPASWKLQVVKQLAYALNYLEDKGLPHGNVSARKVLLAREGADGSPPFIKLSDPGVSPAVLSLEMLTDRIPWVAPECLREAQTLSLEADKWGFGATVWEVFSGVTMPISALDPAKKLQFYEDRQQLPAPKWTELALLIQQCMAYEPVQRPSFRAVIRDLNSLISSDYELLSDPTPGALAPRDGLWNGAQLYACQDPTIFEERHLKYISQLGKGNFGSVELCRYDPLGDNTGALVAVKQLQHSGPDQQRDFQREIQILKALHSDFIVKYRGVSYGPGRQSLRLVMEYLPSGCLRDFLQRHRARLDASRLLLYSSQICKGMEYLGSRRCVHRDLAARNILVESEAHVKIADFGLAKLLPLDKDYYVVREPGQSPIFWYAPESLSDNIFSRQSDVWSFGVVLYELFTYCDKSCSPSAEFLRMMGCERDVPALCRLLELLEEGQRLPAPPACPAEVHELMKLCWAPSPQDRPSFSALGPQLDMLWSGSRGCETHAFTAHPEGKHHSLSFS
The experiment in a line: JAK3 kinobeads assay. The assay is classed as binding. The conditions noted are these: cell lysate, dot blot with JAK3 specific antibody. The protocol:
as §1
Compounds were tested by the procedure described in Example 102 but using a JAK3 specific antibody (Cell Signaling Technology, Inc., Danvers, US, catalogue number 3775) instead of a ZAP70 antibody.
Consider `COc1ccc(Nc2nc(Nc3cc(C4CC4)nn3C)ncc2Cl)c(NS(C)(=O)=O)c1` [Example 9, N-(2-(5-chloro-2-(3-cyclopropyl-1-methyl-1H-pyrazol-5-ylamino)pyrimidin-4-ylamino)-5-methoxyphenyl)methanesulfonamide], for which the pIC50 is 6.00 to 7.00.

`CS(=O)(=O)Nc1ccccc1Nc1nc(Nc2cn[nH]c2)ncc1Cl` [Example 25, N-(2-(2-(1H-pyrazol-4-ylamino)-5-chloropyrimidin-4-ylamino)phenyl)methanesulfonamide] had a negative-log IC50 (pIC50) not below 7.00.

Compound `Cc1cc(Nc2ncc(Br)c(Nc3ccccc3NS(C)(=O)=O)n2)nn1C` [Example 51, N-(2-((5-bromo-2-((1,5-dimethyl-1H-pyrazol-3-yl)amino)pyrimidin-4-yl)amino)phenyl)methanesulfonamide] had a pIC50 not below 7.00.

`Cc1cc(Nc2ncc(Cl)c(Nc3cccc(F)c3NS(C)(=O)=O)n2)nn1C` [Example 78, N-(2-((5-chloro-2-((1,5-dimethyl-1H-pyrazol-3-yl)amino)pyrimidin-4-yl)amino)-6-fluorophenyl)methanesulfonamide] had a pIC50 of 6.00 to 7.00.

The compound `CCn1nc(Nc2ncc(Cl)c(Nc3ccccc3NS(C)(=O)=O)n2)cc1C` [Example 59, N-(2-((5-chloro-2-((1-ethyl-5-methyl-1H-pyrazol-3-yl)amino)pyrimidin-4-yl)amino)phenyl)methanesulfonamide] had a negative-log IC50 (pIC50) not below 7.00.

On to `CCCn1ccc(Nc2ncc(Cl)c(Nc3cccc(F)c3NS(C)(=O)=O)n2)n1` [Example 79, N-(2-((5-chloro-2-((1-propyl-1H-pyrazol-3-yl)amino)pyrimidin-4-yl)amino)-6-fluorophenyl)methanesulfonamide], for which the negative-log IC50 (pIC50) is 6.00 to 7.00.

`Cn1ccc(Nc2ncc(Cl)c(Nc3cccc(F)c3NS(C)(=O)=O)n2)n1` [Example 70, N-(2-((5-chloro-2-((1-methyl-1H-pyrazol-3-yl)amino)pyrimidin-4-yl)amino)-6-fluorophenyl)methanesulfonamide] had a negative-log IC50 (pIC50) not below 7.00.

On to `CCCn1ccc(Nc2ncc(Cl)c(Nc3ccccc3NS(C)(=O)=O)n2)n1` [Example 46, N-(2-((5-chloro-2-((1-propyl-1H-pyrazol-3-yl)amino)pyrimidin-4-yl)amino)phenyl)methanesulfonamide], for which the negative-log IC50 (pIC50) was not below 7.00.

As to `Cc1nn(CC(F)F)cc1Nc1ncc(Cl)c(Nc2ccccc2NS(C)(=O)=O)n1` [Example 81, N-(2-((5-chloro-2-((1-(2,2-difluoroethyl)-3-methyl-1H-pyrazol-4-yl)amino)pyrimidin-4-yl)amino)phenyl)methanesulfonamide], the negative logarithm of the IC50 (pIC50) was not below 7.00.

`CNC(=O)c1cc(Nc2ncc(Cl)c(Nc3ccccc3NS(C)(=O)=O)n2)nn1C` [Example 97, 3-((5-chloro-4-((2-(methylsulfonamido)phenyl)amino)pyrimidin-2-yl)amino)-N,1-dimethyl-1H-pyrazole-5-carboxamide] showed a pIC50 not below 7.00.

In the case of `Cn1cc(Nc2ncc(Cl)c(Nc3ccccc3NS(=O)(=O)C3CC3)n2)cn1` [Example 58, N-(2-((5-chloro-2-((1-methyl-1H-pyrazol-4-yl)amino)pyrimidin-4-yl)amino)phenyl)cyclopropanesulfonamide], the negative-log IC50 (pIC50) was not below 7.00.

Take `CS(=O)(=O)Nc1ccccc1Nc1nc(Nc2cnn(CC(F)F)c2)ncc1F` [Example 85, N-(2-((2-((1-(2,2-difluoroethyl)-1H-pyrazol-4-yl)amino)-5-fluoropyrimidin-4-yl)amino)phenyl)methanesulfonamide]: the pIC50 is not below 7.00.

In the case of `CS(=O)(=O)Nc1ccccc1Nc1nc(Nc2cnn(CCCC#N)c2)ncc1Cl` [Example 65, N-(2-((5-chloro-2-((1-(3-cyanopropyl)-1H-pyrazol-4-yl)amino)pyrimidin-4-yl)amino)phenyl)methanesulfonamide], the negative logarithm of the IC50 (pIC50) was not below 7.00.

Compound `Cn1nc(Nc2ncc(Cl)c(Nc3ccccc3NS(C)(=O)=O)n2)cc1C(=O)O` [Example 92, 3-((5-chloro-4-((2-(methylsulfonamido)phenyl)amino)pyrimidin-2-yl)amino)-1-methyl-1H-pyrazole-5-carboxylic acid] gave a negative logarithm of the IC50 (pIC50) not below 7.00.

On to `COCCn1cc(Nc2ncc(Cl)c(Nc3cccc(F)c3NS(C)(=O)=O)n2)cn1` [Example 93, N-(2-((5-chloro-2-((1-(2-methoxyethyl)-1H-pyrazol-4-yl)amino)pyrimidin-4-yl)amino)-6-fluorophenyl)methanesulfonamide], for which the pIC50 was not below 7.00.

`CCS(=O)(=O)Nc1ccccc1Nc1nc(Nc2ccn(C)n2)ncc1F` [Example 63, N-(2-((5-fluoro-2-((1-methyl-1H-pyrazol-3-yl)amino)pyrimidin-4-yl)amino)phenyl)ethanesulfonamide] had a pIC50 of 5.00 to 6.00.
